Reference: ChEMBL document CHEMBL1667768, “Compounds containing 2-substituted imidazole ring for treatment against human African trypanosomiasis” (Bioorg Med Chem Lett, 2011)
Converted amounts (≈) assume the structure as drawn.

Columns and labels:
[1] = Aqueous solubility of the compound at pH 7.5 at 25 degC; assay type: physicochemical
[2] = system: L6; experiment: Cytotoxicity against rat L6 cells after 72 hrs by SRB assay; assay type: cell-based; conditions: L6, 72 h
[3] = system: Trypanosoma brucei rhodesiense; experiment: Antimicrobial activity against Trypanosoma brucei rhodesiense after 48 hrs by proliferation assay; assay type: functional, organism-based
[4] = Aqueous solubility of the compound at pH 1.5 at 25 degC; assay type: physicochemical

| SMILES | solubility [1] | IC50 [3] | solubility [4] | IC50 [2] |
| --- | --- | --- | --- | --- |
| Cc1cc(OCc2ncc([N+](=O)[O-])n2C)ccn1 | 2.2 µM (≈ 0.546 µg/mL) | 27 µM | 4.3 µM (≈ 1.07 µg/mL) | 286 µM |
| CSc1ccc(OCc2nc(S(=O)(=O)O)c([N+](=O)[O-])n2C)cc1 | 7.9 µM (≈ 2.84 µg/mL) | 0.37 µM | 22.8 µM (≈ 8.19 µg/mL) | 0.2 µM |
| CSc1ccc(OCc2nc([N+](=O)[O-])cn2C)cc1 | 2.5 µM (≈ 0.698 µg/mL) | > 30 µM | 5.1 µM (≈ 1.42 µg/mL) | > 400 µM |
| Cn1c([N+](=O)[O-])cnc1COc1ccccc1 | 2.1 µM (≈ 0.49 µg/mL) | > 30 µM | 5.7 µM (≈ 1.33 µg/mL) | > 400 µM |
| Cn1c([N+](=O)[O-])cnc1COc1ccncc1 | 2.7 µM (≈ 0.632 µg/mL) | > 30 µM | 4.8 µM (≈ 1.12 µg/mL) | > 400 µM |
| CCc1cc(OCc2ncc([N+](=O)[O-])n2C)ccn1 | 3.1 µM (≈ 0.813 µg/mL) | 25 µM | 5.9 µM (≈ 1.55 µg/mL) | 243 µM |
| Cn1c([N+](=O)[O-])cnc1COc1ccnc(N2CCNCC2)c1 | 3.5 µM (≈ 1.11 µg/mL) | 0.67 µM | 5.6 µM (≈ 1.78 µg/mL) | 255 µM |
| CSc1ccc(OCc2ncc(S(=O)(=O)O)n2C)cc1 | 8.2 µM (≈ 2.58 µg/mL) | > 30 µM | 25.4 µM (≈ 7.99 µg/mL) | > 400 µM |

Now from value to molecule, other results behind:

| solubility [1] | IC50 [3] | solubility [4] | SMILES | IC50 [2] |
| --- | --- | --- | --- | --- |
| 5.9 µM (≈ 1.85 µg/mL) | 0.25 µM | 17.1 µM (≈ 5.37 µg/mL) | CSc1ccc(OCc2nc(Cl)c([N+](=O)[O-])n2C)cc1 | 0.2 µM |
| 5.8 µM (≈ 2.08 µg/mL) | 0.55 µM | 16.7 µM (≈ 5.98 µg/mL) | CSc1ccc(OCc2nc(Br)c([N+](=O)[O-])n2C)cc1 | 0.8 µM |
| 8.7 µM (≈ 2.34 µg/mL) | > 30 µM | 21 µM (≈ 5.64 µg/mL) | CSc1ccc(OCc2ncc(Cl)n2C)cc1 | > 400 µM |
| 8.5 µM (≈ 2.66 µg/mL) | > 30 µM | 18.5 µM (≈ 5.79 µg/mL) | CSc1ccc(OCc2ncc(Br)n2C)cc1 | > 400 µM |
| 25.5 µM (≈ 7.73 µg/mL) | > 30 µM | 45.5 µM (≈ 13.8 µg/mL) | CSc1ccc(OCc2nc(Cl)c(Cl)n2C)cc1 | > 400 µM |
| 21.7 µM (≈ 7.54 µg/mL) | > 30 µM | 37.5 µM (≈ 13 µg/mL) | CSc1ccc(OCc2nc(Br)c(Cl)n2C)cc1 | > 400 µM |
| 24.5 µM (≈ 9.61 µg/mL) | > 30 µM | 41.2 µM (≈ 16.2 µg/mL) | CSc1ccc(OCc2nc(Br)c(Br)n2C)cc1 | > 400 µM |
| 24.9 µM (≈ 8.66 µg/mL) | > 30 µM | 35.8 µM (≈ 12.4 µg/mL) | CSc1ccc(OCc2nc(Cl)c(Br)n2C)cc1 | > 400 µM |
| 2.5 µM (≈ 0.698 µg/mL) | 0.7 µM | 5.5 µM (≈ 1.54 µg/mL) | CSc1ccc(OCc2ncc([N+](=O)[O-])n2C)cc1 [FEXINIDAZOLE] | 377 µM |
